{
  "source": "patent US7718688B2",
  "about": "“Nitrobenzindoles and their use in cancer therapy” (Auckland Uniservices Limited, priority 2004, dated 2010)",
  "key": {"[1]": {"assay": "One-electron reduction potential E(1) by pulse radiolysis", "format": "physicochemical", "details": "determined by pulse radiolysis"}, "[2]": {"system": "SKOV3: human ovarian carcinoma cell line", "assay": "Proliferation IC50 assay, oxic/hypoxic, SKOV3", "format": "cell-based", "details": "Table 3; for IC50: 4 h exposure under aerobic conditions; for HCR (hypoxic cytotoxicity ratio) SKOV3: IC50(aerobic)/IC10(hypoxic)"}, "[3]": {"system": "HT29: human colon cancer cell line", "assay": "Proliferation IC50 assay, oxic/hypoxic, HT29", "format": "cell-based", "details": "Table 3; for IC50: 4 h exposure under aerobic conditions; for HCR (hypoxic cytotoxicity ratio) HT29: IC50(aerobic)/IC10(hypoxic)"}, "[4]": {"system": "HT29 clonogens", "assay": "Clonogenic assay (C10), oxic/hypoxic, HT29", "format": "cell-based, human", "details": "for Clonogenic HCR HT29: C10(aerobic)/C10(hypoxic); for Clonogenic C10 HT29 Oxic: concentration to reduce HT29 clonogens to 10% of controls, 4 hr exposure under aerobic conditions"}},
  "data": [
    {"smiles": "CN(C)CCOc1ccc2[nH]c(C(=O)N3CC(CCl)c4c3cc([N+](=O)[O-])c3c(C(N)=O)cccc43)cc2c1", "note": "(stereo not drawn) [Compound 5, 1-(Chloromethyl)-3-{5-[2-(dimethylamino)ethoxy]indol-2-carbonyl}-5-nitro-1,2-dihydro-3H-benzo[e]indole-6-carboxamide]", "values": [
      {"measurement": "E(1): one-electron reduction potential", "setting": "[1]", "result": "−481 ± 8", "unit": "mV"},
      {"measurement": "IC50", "setting": "[2]; Homo sapiens, SK-OV-3", "result": 50, "unit": "µM"},
      {"measurement": "HCR (hypoxic cytotoxicity ratio) SKOV3", "setting": "[2]", "result": 18},
      {"measurement": "IC50", "setting": "[3]; Homo sapiens, HT-29", "result": 23, "unit": "µM"},
      {"measurement": "HCR (hypoxic cytotoxicity ratio) HT29", "setting": "[3]", "result": 43},
      {"measurement": "melting point", "result": "> 350", "unit": "°C"}
    ]},
    {"smiles": "COc1cc2cc(C(=O)N3CC(CCl)c4c3cc([N+](=O)[O-])c3cc(C(C)=O)ccc43)[nH]c2c(OC)c1OC", "note": "(stereo not drawn) [Compound 11, 7-Acetyl-1-(chloromethyl)-5-nitro-3-(5,6,7-trimethoxyindol-2-carbonyl)-1,2-dihydro-3H-benzo[e]indole]", "values": [
      {"measurement": "IC50", "setting": "[2]; Homo sapiens, SK-OV-3", "result": 5.1, "unit": "µM"},
      {"measurement": "HCR (hypoxic cytotoxicity ratio) SKOV3", "setting": "[2]", "result": 19},
      {"measurement": "IC50", "setting": "[3]; Homo sapiens, HT-29", "result": 4.1, "unit": "µM"},
      {"measurement": "HCR (hypoxic cytotoxicity ratio) HT29", "setting": "[3]", "result": 5.2},
      {"measurement": "Clonogenic HCR HT29", "setting": "[4]", "result": ">13.5"},
      {"measurement": "Clonogenic C10 HT29 Oxic", "setting": "[4]", "result": ">25", "unit": "µM"},
      {"measurement": "melting point", "result": "257 to 260", "unit": "°C"}
    ]},
    {"smiles": "CN(C)CCOc1ccc2[nH]c(C(=O)N3CC(CCl)c4c3cc([N+](=O)[O-])c3ccc(S(N)(=O)=O)cc43)cc2c1", "note": "(stereo not drawn) [Compound 49, 1-(Chloromethyl)-3-{5-[2-(dimethylamino)ethoxy]indol-2-carbonyl}-5-nitro-1,2-dihydro-3H-benzo[e]indole-8-sulfonamide]", "values": [
      {"measurement": "E(1): one-electron reduction potential", "setting": "[1]", "result": "−456 ± 8", "unit": "mV"},
      {"measurement": "IC50", "setting": "[2]; Homo sapiens, SK-OV-3", "result": 4.9, "unit": "µM"},
      {"measurement": "HCR (hypoxic cytotoxicity ratio) SKOV3", "setting": "[2]", "result": 21},
      {"measurement": "IC50", "setting": "[3]; Homo sapiens, HT-29", "result": 9, "unit": "µM"},
      {"measurement": "HCR (hypoxic cytotoxicity ratio) HT29", "setting": "[3]", "result": 26},
      {"measurement": "melting point", "result": "260 to 265 °C (dec.)"}
    ]},
    {"smiles": "CN(C)CCOc1ccc2[nH]c(C(=O)N3CC(CCl)c4c3cc([N+](=O)[O-])c3c(C#N)cccc43)cc2c1", "note": "(stereo not drawn) [Compound 6, 1-(Chloromethyl)-3-{5-[2-(dimethylamino)ethoxy]indol-2-carbonyl}-5-nitro-1,2-dihydro-3H-benzo[e]indole-6-carbonitrile]", "values": [
      {"measurement": "E(1): one-electron reduction potential", "setting": "[1]", "result": "−491 ± 8", "unit": "mV"},
      {"measurement": "IC50", "setting": "[2]; Homo sapiens, SK-OV-3", "result": 0.17, "unit": "µM"},
      {"measurement": "HCR (hypoxic cytotoxicity ratio) SKOV3", "setting": "[2]", "result": 1.7},
      {"measurement": "IC50", "setting": "[3]; Homo sapiens, HT-29", "result": 0.12, "unit": "µM"},
      {"measurement": "HCR (hypoxic cytotoxicity ratio) HT29", "setting": "[3]", "result": 1.1},
      {"measurement": "melting point", "result": "> 300", "unit": "°C"}
    ]},
    {"smiles": "COc1cc2cc(C(=O)N3CC(CCl)c4c3cc([N+](=O)[O-])c3cc([N+](=O)[O-])ccc43)[nH]c2c(OC)c1OC", "note": "(stereo not drawn) [Compound 8]", "values": [
      {"measurement": "IC50", "setting": "[2]", "result": 16, "unit": "µM"},
      {"measurement": "HCR (hypoxic cytotoxicity ratio) SKOV3", "setting": "[2]", "result": 78},
      {"measurement": "IC50", "setting": "[3]", "result": 14, "unit": "µM"},
      {"measurement": "HCR (hypoxic cytotoxicity ratio) HT29", "setting": "[3]", "result": 12},
      {"measurement": "Clonogenic HCR HT29", "setting": "[4]", "result": ">16.2"},
      {"measurement": "Clonogenic C10 HT29 Oxic", "setting": "[4]", "result": ">25", "unit": "µM"}
    ]},
    {"smiles": "COc1cc2cc(C(=O)N3CC(CCl)c4c3cc([N+](=O)[O-])c3cc(C(=O)NCCN(C)C)ccc43)[nH]c2c(OC)c1OC", "note": "(stereo not drawn) [Compound 20, 1-(Chloromethyl)-N-[2-(dimethylamino)ethyl]-5-nitro-3-(5,6,7-trimethoxyindol-2-carbonyl)-1,2-dihydro-3H-benzo[e]indole-7-carboxamide]", "values": [
      {"measurement": "E(1): one-electron reduction potential", "setting": "[1]", "result": "−427 ± 12", "unit": "mV"},
      {"measurement": "IC50", "setting": "[2]; Homo sapiens, SK-OV-3", "result": 2, "unit": "µM"},
      {"measurement": "HCR (hypoxic cytotoxicity ratio) SKOV3", "setting": "[2]", "result": 24},
      {"measurement": "IC50", "setting": "[3]; Homo sapiens, HT-29", "result": 1.5, "unit": "µM"},
      {"measurement": "HCR (hypoxic cytotoxicity ratio) HT29", "setting": "[3]", "result": 5.9}
    ]},
    {"smiles": "CN(C)CCOc1ccc2[nH]c(C(=O)N3CCc4c3cc([N+](=O)[O-])c3c(S(N)(=O)=O)c(CCl)ccc43)cc2c1", "note": "[Compound 7, 7-(Chloromethyl)-3-{5-[2-(dimethylamino)ethoxy]indol-2-carbonyl}-5-nitro-1,2-dihydro-3H-benzo[e]indole-6-sulfonamide]", "values": [
      {"measurement": "E(1): one-electron reduction potential", "setting": "[1]", "result": "−497 ± 8", "unit": "mV"},
      {"measurement": "IC50", "setting": "[2]; Homo sapiens, SK-OV-3", "result": 3.7, "unit": "µM"},
      {"measurement": "HCR (hypoxic cytotoxicity ratio) SKOV3", "setting": "[2]", "result": 4.6},
      {"measurement": "IC50", "setting": "[3]; Homo sapiens, HT-29", "result": 2.7, "unit": "µM"},
      {"measurement": "HCR (hypoxic cytotoxicity ratio) HT29", "setting": "[3]", "result": 2.3},
      {"measurement": "melting point", "result": "> 320", "unit": "°C"}
    ]}
  ]
}
